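96-well plates; 48 h exposure; 5 concentrations. Endpoints by linear interpolation between flanking doses. Not reached: highest tested concentration assigned. The concentration for 50% growth inhibition is given as GI50. TGI is the concentration that stops growth completely.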
Key:
Test in all cases: growth of human tumour cells (NCI), 48 h
SF-295 CNS = system: SF-295 CNS
MALME-3M melanoma = system: MALME-3M melanoma
M14 melanoma = system: M14 melanoma
DU-145 prostate = system: DU-145 prostate
NCI-H23 lung = system: NCI-H23 lung
HCC-2998 colon = system: HCC-2998 colon
SN12C renal = system: SN12C renal
SK-MEL-2 melanoma = system: SK-MEL-2 melanoma
UACC-257 melanoma = system: UACC-257 melanoma
A498 renal = system: A498 renal
HL-60(TB) leukemia = system: HL-60(TB) leukemia
PC-3 prostate = system: PC-3 prostate
MDA-MB-231 breast = system: MDA-MB-231 breast
HOP-92 NSCLC = system: HOP-92 NSCLC
OVCAR-5 ovarian = system: OVCAR-5 ovarian
UACC-62 melanoma = system: UACC-62 melanoma
BT-549 breast = system: BT-549 breast

N=C(N)c1ccc(-c2ccc(-c3ccccc3)s2)s1
GI50 (SF-295 CNS): 32.1 nM
TGI (SF-295 CNS): 273 nM
GI50 (MALME-3M melanoma): 1170 nM
TGI (MALME-3M melanoma): 2590 nM
GI50 (M14 melanoma): < 10 nM
TGI (M14 melanoma): 15.5 nM
GI50 (DU-145 prostate): < 10 nM
TGI (DU-145 prostate): 1100 nM
GI50 (NCI-H23 lung): < 10 nM
TGI (NCI-H23 lung): 1370 nM
GI50 (HCC-2998 colon): 1050 nM
TGI (HCC-2998 colon): 2360 nM
GI50 (SN12C renal): 156 nM
TGI (SN12C renal): 1950 nM
GI50 (SK-MEL-2 melanoma): 1760 nM
TGI (SK-MEL-2 melanoma): 3380 nM
GI50 (UACC-257 melanoma): 156 nM
TGI (UACC-257 melanoma): 2310 nM
GI50 (A498 renal): < 10 nM
TGI (A498 renal): 1340 nM
GI50 (HL-60(TB) leukemia): 28.7 nM
TGI (HL-60(TB) leukemia): 1430 nM
GI50 (PC-3 prostate): 249 nM
TGI (PC-3 prostate): 2030 nM
GI50 (MDA-MB-231 breast): 753 nM
TGI (MDA-MB-231 breast): 2500 nM
GI50 (HOP-92 NSCLC): 65.5 nM
TGI (HOP-92 NSCLC): 2170 nM
GI50 (OVCAR-5 ovarian): 374 nM
TGI (OVCAR-5 ovarian): 2450 nM
GI50 (UACC-62 melanoma): 15.6 nM
TGI (UACC-62 melanoma): 1300 nM
GI50 (BT-549 breast): 26.7 nM
TGI (BT-549 breast): 2000 nM

Reference: PubChem BioAssay (NCI)
